Test results published in patent US11116735B2, “Use of substituted benzylideneguanidine derivatives as synergists for polymyxin antibiotics” (GUANGZHOU INSIGHTER BIOTECHNOLOGY CO., LTD., priority 2015, dated 2021).
“And” between values parts separate entries of the source, which are not always exact repeats. Equal values may be shown once.

Tests used:
E. coli 2S-19 = assay: MIC by doubling dilution, colistin sulfate-susceptible E. coli 2S-19; type: cell-based, Escherichia coli; conditions: E. coli 2S-19, colistin sulfate-susceptible; substance alone; derivatives as hydrochlorides
cherry valley ducks = assay: Combined application of compound 3 and colistin sulfate in duck feed; type: in vivo; conditions: 40 ppm colistin sulfate in feed, 21-day experiment
Description: 800 1-day-aged cherry valley ducks were divided into 4 groups according to Table 10, 4 parallels in each group and 50 ducks in each parallel. For each group, colistin sulfate and/or compound 3 were added into the feed. The ducks were kept in cages and given ad libitum access to feed and water during a 21-day experiment. Synergy of compound 3 and colistin sulfate on the ducks in the weight gain and feed efficiency was observed from the result (see Table 11).

[1] = tested on: various colistin sulfate-resistant Gram-negative bacteria; assay: MIC by doubling dilution, summary over resistant species; conditions: bound that characterises the tested resistant strains
Description: (§2) The compound 3 in this embodiment was in the form of a hydrochloride, i.e., the experiments were carried out with a hydrochloride of compound 3.
(§3) In vitro minimum inhibitory concentrations of colistin sulfate against the strains where the cultures respectively comprised various concentrations of compound 3 were also measured.

E. coli 5F-1 [2] = assay: MIC, resistance reversal by various concentrations of compound 3, E. coli 5F-1; conditions: colistin sulfate with 0 ppm compound 3, or compound 3 (hydrochloride) in the absence of colistin sulfate
Description: as §2, §3

P. aeruginosa E543 = assay: MIC, resistance reversal by various concentrations of compound 3, P. aeruginosa E543; conditions: colistin sulfate with 0 ppm compound 3, or compound 3 (hydrochloride) in the absence of colistin sulfate
Description: as §2, §3

E. coli 3B-24 = assay: MIC by doubling dilution, colistin sulfate-susceptible E. coli 3B-24; type: cell-based, Escherichia coli; conditions: E. coli 3B-24, colistin sulfate-susceptible; substance alone; derivatives as hydrochlorides
Klebsiella sp. 4125 = assay: MIC, resistance reversal by various concentrations of compound 3, Klebsiella sp. 4125; conditions: colistin sulfate with 0 ppm compound 3, or compound 3 (hydrochloride) in the absence of colistin sulfate
Description: as §2, §3

[3] = tested on: fast-growing yellow feather broilers; assay: Combined application of compound 3 and colistin sulfate in chicken feed; type: in vivo; conditions: broilers, 50 ppm colistin sulfate in feed, 28-day experiment
Description: 800 1-day-aged fast-growing yellow feather broilers were divided into 4 groups, 4 parallels in each group and 50 broilers in each parallel. For each group, colistin sulfate and/or compound 3 were added into the feed. The chicken were kept in cages and given ad libitum access to feed and water during a 28-day experiment. Synergy of compound 3 and colistin sulfate on the chicken in the weight gain and feed efficiency was observed from the result (see Table 10).

E. coli 5F-1 [4] = assay: MIC by doubling dilution, colistin sulfate-resistant E. coli 5F-1; conditions: E. coli 5F-1, colistin sulfate-resistant; substance alone; derivatives as hydrochlorides
Description: (§4) In vitro minimum inhibitory concentrations of colistin sulfate against the strains where the cultures respectively comprised 20.0 ppm of the substituted benzylideneguanidine derivatives were also measured.

E. coli 4D-6 = assay: MIC by doubling dilution, colistin sulfate-resistant E. coli 4D-6; conditions: E. coli 4D-6, colistin sulfate-resistant; substance alone; derivatives as hydrochlorides
Description: as §4

weanling piglets [5] = assay: Compound 3 in various dosages and colistin sulfate in the feed for weanling piglets; type: in vivo, Duroc×Landrace×Large crossbred lean weanling piglets; conditions: weanling piglets, only 20 ppm colistin sulfate in creep feed (control group), ten days
Description: (§1) 90 28-day-aged Duroc×Landrace×Large crossbred lean weanling piglets similar in weight were divided into 9 groups, 10 piglets in each group. For each group, colistin sulfate and/or various dosages of compound 3 were added into the antibiotic-free creep feed. The piglets were given ad libitum access to feed and water during the experiment. Weight gain, feed efficiency and diarrhea rate of each group within ten days were recorded.

[6] = tested on: colistin sulfate-susceptible Escherichia coli strains; assay: MIC by doubling dilution, summary over colistin sulfate-susceptible strains; type: cell-based; conditions: bound that characterises the tested susceptible E. coli strains
Shigella sp. 2D89 = assay: MIC, resistance reversal by various concentrations of compound 3, Shigella sp. 2D89; conditions: colistin sulfate with 0 ppm compound 3, or compound 3 (hydrochloride) in the absence of colistin sulfate
Description: as §2, §3

E. coli 3H-4 = assay: MIC by doubling dilution, colistin sulfate-resistant E. coli 3H-4; conditions: E. coli 3H-4, colistin sulfate-resistant; substance alone; derivatives as hydrochlorides
Description: as §4

weanling piglets [7] = assay: Synergy of compound 3 and colistin sulfate in the feed for weanling piglets; type: in vivo, Duroc×Landrace×Large crossbred lean weanling piglets; conditions: weanling piglets, only 20 ppm colistin sulfate in creep feed (Control 1, groups 4-6), ten days
Description: as §1, with “120” for “90”, “12” for “9”, “and/or” for “and/or various dosages of”

weanling piglets [8] = assay: Synergy of derivatives and colistin sulfate in the feed for weanling piglets; type: in vivo, Duroc×Landrace×Large crossbred lean weanling piglets; conditions: creep feed with only 20 ppm colistin sulfate (control group), ten days
Description: as §1, with “substituted benzylideneguanidine derivatives” for “dosages of compound 3”

E. coli 3Y-9 = assay: MIC by doubling dilution, colistin sulfate-susceptible E. coli 3Y-9; type: cell-based, Escherichia coli; conditions: E. coli 3Y-9, colistin sulfate-susceptible; substance alone; derivatives as hydrochlorides
[9] = tested on: colistin sulfate-resistant E. coli strains; assay: MIC by doubling dilution, summary over colistin sulfate-resistant strains; conditions: bound that characterises the tested resistant E. coli strains
Description: as §4

E. coli 2G-7 = assay: MIC by doubling dilution, colistin sulfate-resistant E. coli 2G-7; conditions: E. coli 2G-7, colistin sulfate-resistant; substance alone; derivatives as hydrochlorides
Description: as §4

E. coli 5W-7 = assay: MIC by doubling dilution, colistin sulfate-susceptible E. coli 5W-7; type: cell-based, Escherichia coli; conditions: E. coli 5W-7, colistin sulfate-susceptible; substance alone; derivatives as hydrochlorides

Substance: colistin sulfate [reference compound]
- In vitro minimum inhibitory concentration (MIC) of the substance alone (E. coli 2S-19): 2.0 ppm and 2.00 ppm
- Average daily weight gain (cherry valley ducks): 50.1 g
- Feed conversion ratio (cherry valley ducks): 1.945
- Survival rate (cherry valley ducks): 100%
- MIC value of colistin sulfate against the resistant Gram-negative bacteria [1]: higher than 4.0 ppm
- In vitro MIC of the substance alone (E. coli 5F-1 [2]): 128.00 ppm
- In vitro MIC of the substance alone (P. aeruginosa E543): 64.00 ppm
- In vitro minimum inhibitory concentration (MIC) of the substance alone (E. coli 3B-24): 2.0 ppm and 2.00 ppm
- In vitro MIC of the substance alone (Klebsiella sp. 4125): 64.00 ppm
- Average daily weight gain [3]: 39.8 g
- Feed conversion ratio [3]: 1.965
- Survival rate [3]: 100%
- In vitro minimum inhibitory concentration (MIC) of the substance alone (E. coli 5F-1 [4]): 128 ppm and 128.0 ppm
- In vitro minimum inhibitory concentration (MIC) of the substance alone (E. coli 4D-6): 256 ppm and 256.0 ppm
- Average daily weight gain (weanling piglets [5]): 211 g
- Diarrhea rate (weanling piglets [5]): 33%
- Feed conversion ratio (weanling piglets [5]): 1.672
- MIC value of colistin sulfate against the susceptible strains [6]: lower than 4.0 ppm
- In vitro MIC of the substance alone (Shigella sp. 2D89): 32.00 ppm
- In vitro minimum inhibitory concentration (MIC) of the substance alone (E. coli 3H-4): 64 ppm and 64.0 ppm
- Average daily weight gain (weanling piglets [7]): 215 g and 208 g and 217 g
- Diarrhea rate (weanling piglets [7]): 31% and 29% and 33%
- Feed conversion ratio (weanling piglets [7]): 1.654 and 1.598 and 1.623
- Average daily weight gain (weanling piglets [8]): 219 g
- Diarrhea rate (weanling piglets [8]): 33%
- Feed conversion ratio (weanling piglets [8]): 1.649
- In vitro minimum inhibitory concentration (MIC) of the substance alone (E. coli 3Y-9): 2.0 ppm and 2.00 ppm
- MIC value of colistin sulfate against the resistant strains [9]: higher than 4.0 ppm
- In vitro minimum inhibitory concentration (MIC) of the substance alone (E. coli 2G-7): 64 ppm and 64.0 ppm
- In vitro minimum inhibitory concentration (MIC) of the substance alone (E. coli 5W-7): 1.0 ppm and 1.00 ppm
